Data published in patent publication US20250368619A1, “SUBSTITUTED TETRAHYDROCYCLOHEPTA[E]INDOLE DERIVATIVES, PROCESSES FOR THEIR PREPARATION AND THERAPEUTIC USES THEREOF” (SANOFI, priority 2022, published 2025).

Target: T1, ERα (Homo sapiens, UniProt P03372)
T1 construct: host or cells: MCF7
T1 sequence (P03372 1-595): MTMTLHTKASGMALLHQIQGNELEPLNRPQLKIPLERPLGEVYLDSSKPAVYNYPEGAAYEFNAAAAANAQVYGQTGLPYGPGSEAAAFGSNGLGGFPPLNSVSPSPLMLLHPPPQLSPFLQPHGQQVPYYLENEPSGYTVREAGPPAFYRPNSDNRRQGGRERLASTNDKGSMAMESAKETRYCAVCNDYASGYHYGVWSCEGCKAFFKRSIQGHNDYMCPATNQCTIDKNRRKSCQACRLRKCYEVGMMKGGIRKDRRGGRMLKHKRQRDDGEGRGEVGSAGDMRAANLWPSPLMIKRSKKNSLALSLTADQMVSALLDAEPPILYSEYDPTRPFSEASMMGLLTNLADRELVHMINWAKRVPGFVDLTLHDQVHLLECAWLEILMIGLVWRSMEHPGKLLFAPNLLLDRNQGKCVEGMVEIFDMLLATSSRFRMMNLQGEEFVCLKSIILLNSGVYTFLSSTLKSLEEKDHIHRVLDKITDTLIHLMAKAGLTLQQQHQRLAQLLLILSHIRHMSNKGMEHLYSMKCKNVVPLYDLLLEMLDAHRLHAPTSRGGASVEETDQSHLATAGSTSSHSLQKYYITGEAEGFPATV
Experiment: Estrogen receptor degradation activity: breast cancer cell ERα in cell western assay in MCF7 cells
Type: cell-based
Conditions: 4 hours, relative to fulvestrant 0.1 μM positive control
Procedure: Test: Estrogen receptor degradation activity
Said test involves measuring the in vitro degradation activity of the compounds of the table 1.
The measurements of the degradation activities were made using a breast cancer cell ERα in cell western assay as described hereunder.
MCF7 cells (ATCC) were seeded in 384 wells microplate (collagen coated) at a concentration of 10000 cells/30 μL per well in red phenol free MEM alpha medium (invitrogen) containing 5% charcoal dextran striped FBS. The following day, 9 points serial 1:5 dilution of each compound was added to the cells in 2.5 μL at final concentrations ranging from 0.3-0.0000018 μM (in table 2), or 0.1 μM for fulvestrant (using as positive control). At 4 hours post compound addition the cells were fixed by adding 25 μL of formalin (final concentration 5% formalin containing 0.1% triton) for 10 minutes at RT and then washed twice with PBS. Then, 50 μL of LI-COR blocking buffer containing 0.1% Triton was added to plate for 30 minutes at RT. LI-COR blocking buffer was removed and cells were incubated overnight at cold room with 50 μL anti-ER rabbit monoclonal antibody (Thermo scientific MA1-39540) diluted at 1:1000 in LI-COR blocking buffer containing 0.1% tween-20. Wells which were treated with blocking buffer but no antibody were used as background control. Wells were washed twice with PBS (0.1% tween-20) and incubated at 37° C. for 60 minutes in LI-COR (0.1% tween-20) containing goat anti-rabbit antibody Alexa 488 (1:1000) and Syto-64 a DNA dye (2 μM final concentration). Cells were then washed 3 times in PBS and scanned in ACUMEN explorer (TTP-Labtech). Integrated intensities in the green fluorescence and red fluorescence were measured to determine the levels of ERα and DNA respectively.
The degradation activity with respect to estrogen receptors in this test is given by the concentration which degrades 50% of the estrogen receptor (or IC50) in nM.
The % of ERα levels decrease were determined as follows: % inhibition=100*(1−(sample−fulvestrant:DMSO−fulvestrant)).

% Degradation At 0.3 μM | SMILES
92% | O=C(O)/C=C/C1=C(c2ccc(CC3CN(CCCF)C3)cc2)c2ccc3[nH]ccc3c2CCC1 [Compound 24, (E)-3-(6-(4-((1-(3-fluoropropyl)azetidin-3-yl)methyl)phenyl)-3,8,9,10-tetrahydrocyclohepta[e]indol-7-yl)acrylic acid]
91% | Cc1c(Cl)cccc1C1=C(c2ccc(OC3CN(CCCF)C3)cc2)c2ccc3[nH]ccc3c2CCC1 [Compound 26, 7-(3-chloro-2-methylphenyl)-6-(4-((1-(3-fluoropropyl)azetidin-3-yl)oxy)phenyl)-3,8,9,10-tetrahydrocyclohepta[e]indole]
85% | N#Cc1ccccc1C1=C(c2ccc(CC3CN(CCCF)C3)cc2)c2ccc3[nH]ccc3c2CCC1 [Compound 12, 2-(6-(4-((1-(3-fluoropropyl)azetidin-3-yl)methyl)phenyl)-3,8,9,10-tetrahydrocyclohepta[e]indol-7-yl)benzonitrile]
69% | OC/C=C/C1=C(c2ccc(CC3CN(CCCF)C3)cc2)c2ccc3[nH]ccc3c2CCC1 [Compound 17, (E)-3-(6-(4-((1-(3-fluoropropyl)azetidin-3-yl)methyl)phenyl)-3,8,9,10-tetrahydrocyclohepta[e]indol-7-yl)prop-2-en-1-ol]
80% | Cc1cc(F)ccc1C1=C(c2ccc(CC3CN(CCCF)C3)cc2)c2ccc3[nH]ccc3c2CCC1 [Compound 1, 7-(4-fluoro-2-methylphenyl)-6-(4-((1-(3-fluoropropyl)azetidin-3-yl)methyl)phenyl)-3,8,9,10-tetrahydrocyclohepta[e]indole]
77% | CC(C)(O)/C=C/C1=C(c2ccc(CC3CN(CCCF)C3)cc2)c2ccc3[nH]ccc3c2CCC1 [Compound 18, (E)-4-(6-(4-((1-(3-fluoropropyl)azetidin-3-yl)methyl)phenyl)-3,8,9,10-tetrahydrocyclohepta[e]indol-7-yl)-2-methylbut-3-en-2-ol]
80% | O=C(O)C(F)(F)F.O=C(O)c1ccc(C2=C(c3ccc(CC4CN(CCCF)C4)cc3)c3ccc4[nH]ccc4c3CCC2)cc1 [Compound 23, 4-(6-(4-((1-(3-fluoropropyl)azetidin-3-yl)methyl)phenyl)-3,8,9,10-tetrahydrocyclohepta[e]indol-7-yl)benzoic acid, 2,2,2-trifluoroacetic acid]
91% | COc1cc(C2=C(c3ccc(CC4CN(CCCF)C4)cc3)c3ccc4[nH]ccc4c3CCC2)ccn1 [Compound 14, 6-(4-((1-(3-fluoropropyl)azetidin-3-yl)methyl)phenyl)-7-(2-methoxypyridin-4-yl)-3,8,9,10-tetrahydrocyclohepta[e]indole]
75% | N#Cc1cccc(C2=C(c3ccc(CC4CN(CCCF)C4)cc3)c3ccc4[nH]ccc4c3CCC2)c1 [Compound 11, 3-(6-(4-((1-(3-fluoropropyl)azetidin-3-yl)methyl)phenyl)-3,8,9,10-tetrahydrocyclohepta[e]indol-7-yl)benzonitrile]
76% | OCc1ccc(C2=C(c3ccc(CC4CN(CCCF)C4)cc3)c3ccc4[nH]ccc4c3CCC2)cc1 [Compound 20, (4-(6-(4-((1-(3-fluoropropyl)azetidin-3-yl)methyl)phenyl)-3,8,9,10-tetrahydrocyclohepta[e]indol-7-yl)phenyl)methanol]
73% | FCCCN1CC(Cc2ccc(C3=C(c4cccc(C(F)(F)F)c4)CCCc4c3ccc3[nH]ccc43)cc2)C1 [Compound 10, 6-(4-((1-(3-fluoropropyl)azetidin-3-yl)methyl)phenyl)-7-(3-(trifluoromethyl)phenyl)-3,8,9,10-tetrahydrocyclohepta[e]indole]
74% | FCCCN1CC(Cc2ccc(C3=C(C4=CCOCC4)CCCc4c3ccc3[nH]ccc43)cc2)C1 [Compound 16, 7-(3,6-dihydro-2H-pyran-4-yl)-6-(4-((1-(3-fluoropropyl)azetidin-3-yl)methyl)phenyl)-3,8,9,10-tetrahydrocyclohepta[e]indole]
83% | Cc1c(Cl)cccc1C1=C(c2ccc(CC3CN(CCCF)C3)cc2)c2ccc3[nH]ccc3c2CCC1 [Compound 8, 7-(3-chloro-2-methylphenyl)-6-(4-((1-(3-fluoropropyl)azetidin-3-yl)methyl)phenyl)-3,8,9,10-tetrahydrocyclohepta[e]indole]
71% | OCc1cccc(C2=C(c3ccc(CC4CN(CCCF)C4)cc3)c3ccc4[nH]ccc4c3CCC2)c1 [Compound 19, (3-(6-(4-((1-(3-fluoropropyl)azetidin-3-yl)methyl)phenyl)-3,8,9,10-tetrahydrocyclohepta[e]indol-7-yl)phenyl)methanol]
91% | Cc1c(Cl)cccc1C1=C(c2ccc(/C=C3/CCN(CCCF)C3)cc2)c2ccc3[nH]ccc3c2CCC1 [Compound 29, (Z)-7-(3-chloro-2-methylphenyl)-6-(4-((1-(3-fluoropropyl)pyrrolidin-3-ylidene)methyl)phenyl)-3,8,9,10-tetrahydrocyclohepta[e]indole]
85% | FCCCN1CC[C@H](Oc2ccc(C3=C(c4ccc(Cl)cc4Cl)CCCc4c3ccc3[nH]ccc43)cc2)C1 [Compound 4, (S)-7-(2,4-dichlorophenyl)-6-(4-((1-(3-fluoropropyl)pyrrolidin-3-yl)oxy)phenyl)-3,8,9,10-tetrahydrocyclohepta[e]indole]
72% | N#Cc1ccc(C2=C(c3ccc(CC4CN(CCCF)C4)cc3)c3ccc4[nH]ccc4c3CCC2)cc1 [Compound 13, 4-(6-(4-((1-(3-fluoropropyl)azetidin-3-yl)methyl)phenyl)-3,8,9,10-tetrahydrocyclohepta[e]indol-7-yl)benzonitrile]
68% | O=C(O)c1cccc(C2=C(c3ccc(CC4CN(CCCF)C4)cc3)c3ccc4[nH]ccc4c3CCC2)c1 [Compound 22, 3-(6-(4-((1-(3-fluoropropyl)azetidin-3-yl)methyl)phenyl)-3,8,9,10-tetrahydrocyclohepta[e]indol-7-yl)benzoic acid]
90% | Oc1c(F)ccc(C2=C(c3ccc(CC4CN(CCCF)C4)cc3)c3ccc4[nH]ccc4c3CCC2)c1F [Compound 6, 2,6-difluoro-3-(6-(4-((1-(3-fluoropropyl)azetidin-3-yl)methyl)phenyl)-3,8,9,10-tetrahydrocyclohepta[e]indol-7-yl)phenol]
92% | COc1nccc(C2=C(c3ccc(CC4CN(CCCF)C4)cc3)c3ccc4[nH]ccc4c3CCC2)c1F [Compound 2, 7-(3-fluoro-2-methoxypyridin-4-yl)-6-(4-((1-(3-fluoropropyl)azetidin-3-yl)methyl)phenyl)-3,8,9,10-tetrahydrocyclohepta[e]indole]
91% | Cc1c(Cl)cccc1C1=C(c2ccc(N[C@H]3CCN(CCCF)C3)cc2)c2ccc3[nH]ccc3c2CCC1 [Compound 28, (S)-N-(4-(7-(3-chloro-2-methylphenyl)-3,8,9,10-tetrahydrocyclohepta[e]indol-6-yl)phenyl)-1-(3-fluoropropyl)pyrrolidin-3-amine]
82% | FCCCN1CC(Cc2ccc(C3=C(c4ccc(Cl)cc4Cl)CCCc4c3ccc3[nH]ccc43)cc2)C1 [Compound 7, 7-(2,4-dichlorophenyl)-6-(4-((1-(3-fluoropropyl)azetidin-3-yl)methyl)phenyl)-3,8,9,10-tetrahydrocyclohepta[e]indole]
75% | OCCCC1=C(c2ccc(CC3CN(CCCF)C3)cc2)c2ccc3[nH]ccc3c2CCC1 [Compound 25, 3-(6-(4-((1-(3-fluoropropyl)azetidin-3-yl)methyl)phenyl)-3,8,9,10-tetrahydrocyclohepta[e]indol-7-yl)propan-1-ol]
91% | COc1ccc(C2=C(c3ccc(CC4CN(CCCF)C4)cc3)c3ccc4[nH]ccc4c3CCC2)cn1 [Compound 15, 6-(4-((1-(3-fluoropropyl)azetidin-3-yl)methyl)phenyl)-7-(6-methoxypyridin-3-yl)-3,8,9,10-tetrahydrocyclohepta[e]indole]
